Source: US12331040B2 (Karyopharm Therapeutics Inc., priority 2013, dated 2025)

How the values were obtained:
Assay type in all cases: cell-based
[1] = system: Daudi cells; assay: MTT cell proliferation assay; conditions: Homo sapiens, 72-hour MTT
Procedure, shortened: (§1)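 72-h MTT proliferation; 5,000-10,000 cells/well, overnight attachment; cpd 1 nM–30 μM, 8 concs; MTT ~4 h, formazan solubilized, OD490; % inhibition vs negative control, mean±SE, usually duplicate.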

[2] = system: MO7e cells; assay: MTT cell proliferation assay; conditions: 72-hour MTT
Procedure, shortened: as §1

[3] = system: LS-180 cells; assay: MTT cell proliferation assay; conditions: Homo sapiens, LS180, 72-hour MTT
Procedure, shortened: as §1

[4] = system: NCI-H1299 cells; assay: MTT cell proliferation assay; conditions: Homo sapiens, 72-hour MTT
Procedure, shortened: as §1

[5] = system: NCI-H520 cells; assay: MTT cell proliferation assay; conditions: Homo sapiens, 72-hour MTT
Procedure, shortened: as §1

[6] = system: Colo-201 cells; assay: MTT cell proliferation assay; conditions: Homo sapiens, 72-hour MTT
Procedure, shortened: as §1

[7] = system: K562 cells; assay: MTT cell proliferation assay; conditions: Homo sapiens, 72-hour MTT
Procedure, shortened: as §1

[8] = system: BT-20 cells; assay: MTT cell proliferation assay; conditions: Homo sapiens, 72-hour MTT
Procedure, shortened: as §1

[9] = system: HTB-38 cells; assay: MTT cell proliferation assay; conditions: 72-hour MTT
Procedure, shortened: as §1

[10] = system: MDA-MB-415 cells; assay: MTT cell proliferation assay; conditions: Homo sapiens, 72-hour MTT
Procedure, shortened: as §1

[11] = system: HCI-H358 cells; assay: MTT cell proliferation assay; conditions: 72-hour MTT
Procedure, shortened: as §1

[12] = system: BT-549 cells; assay: MTT cell proliferation assay; conditions: Homo sapiens, 72-hour MTT
Procedure, shortened: as §1

[13] = system: MiaPaCa-2 cells; assay: MTT cell proliferation assay; conditions: Homo sapiens, MIA PaCa-2, 72-hour MTT
Procedure, shortened: as §1

[14] = system: SW-620 cells; assay: MTT cell proliferation assay; conditions: Homo sapiens, 72-hour MTT
Procedure, shortened: as §1

[15] = system: PATU-8988S cells; assay: MTT cell proliferation assay; conditions: PaTuÂ 8988s, 72-hour MTT
Procedure, shortened: as §1

[16] = system: NCI-H28 cells; assay: MTT cell proliferation assay; conditions: Homo sapiens, 72-hour MTT
Procedure, shortened: as §1

[17] = system: DB cells; assay: MTT cell proliferation assay; conditions: Homo sapiens, 72-hour MTT
Procedure, shortened: as §1

[18] = system: PATU-8988T cells; assay: MTT cell proliferation assay; conditions: Homo sapiens, 72-hour MTT
Procedure, shortened: as §1

[19] = system: L3.6pl cells; assay: MTT cell proliferation assay; conditions: Homo sapiens, 72-hour MTT
Procedure, shortened: as §1

[20] = system: RWPE-1 cells; assay: MTT cell proliferation assay; conditions: Homo sapiens, 72-hour MTT
Procedure, shortened: as §1

[21] = system: BL-2 cells; assay: MTT cell proliferation assay; conditions: BL2, 72-hour MTT
Procedure, shortened: as §1

[22] = system: Pfieffer cells; assay: MTT cell proliferation assay; conditions: 72-hour MTT
Procedure, shortened: as §1

[23] = system: MM1R cells; assay: MTT cell proliferation assay; conditions: MM.1R, 72-hour MTT
Procedure, shortened: as §1

[24] = system: LS-174T cells; assay: MTT cell proliferation assay; conditions: Homo sapiens, LS174T, 72-hour MTT
Procedure, shortened: as §1

[25] = system: C6 cells; assay: MTT cell proliferation assay; conditions: Rattus norvegicus, 72-hour MTT
Procedure, shortened: as §1

[26] = system: SW-948 cells; assay: MTT cell proliferation assay; conditions: Homo sapiens, SW948, 72-hour MTT
Procedure, shortened: as §1

[27] = system: SKOV3 cells; assay: MTT cell proliferation assay; conditions: Homo sapiens, SK-OV-3, 72-hour MTT
Procedure, shortened: as §1

[28] = system: MDA-MB-361 cells; assay: MTT cell proliferation assay; conditions: Homo sapiens, 72-hour MTT
Procedure, shortened: as §1

[29] = system: T47D cells; assay: MTT cell proliferation assay; conditions: Homo sapiens, 72-hour MTT
Procedure, shortened: as §1

[30] = system: NCI-H508 cells; assay: MTT cell proliferation assay; conditions: Homo sapiens, 72-hour MTT
Procedure, shortened: as §1

[31] = system: normal cells; assay: 72-hour MTT cell proliferation assay, summary over the normal cell lines tested; conditions: normal cells (n=10): NHDF, 3T3, NHEK, IMR-90, PBMC, ARPE-19, HS738.st, WI-38, MRC-5, RWPE-1
Method: The MTT cell proliferation assay was used to study the cytotoxic properties of the compounds. The assay was performed according to the method described by Roche Molecular Biochemicals, with minor modifications. The assay is based on the cleavage of the tetrazolium salt, MTT, in the presence of an electron-coupling reagent. The water-insoluble formazan salt produced must be solubilized in an additional step. Cells grown in a 96-well tissue culture plate were incubated with the MTT solution for approximately 4 hours. After this incubation period, a water-insoluble formazan dye formed. After solubilization, the formazan dye was quantitated using a scanning multi-well spectrophotometer (ELISA reader). […] The cells were seeded at 5,000-10,000 cells in each well of 96-well plate in 100 μL of fresh culture medium and were allowed to attach overnight. The stock solutions of the compounds were diluted in 100 μL cell culture medium to obtain eight concentrations of each test compound, ranging from 1 nM to 30 μM. […] All optical densities were measured at 490 nm using a Vmax Kinetic Microplate Reader (Molecular Devices). In most cases, the assay was performed in duplicate and the results were presented as a mean percent inhibition to the negative control±SE. The following formula was used to calculate the percent of inhibition: Inhibition (%)=(1−(ODo/OD))×100. […]

SMILES: Nc1ccc(/C=C/C(=O)NCc2cc3cc(-c4ccc(C(=O)N5CCC(F)(F)CC5)cn4)cc(C(F)(F)F)c3o2)cn1 [Compound 585, (E)-3-(6-aminopyridin-3-yl)-N-((5-(5-(4,4-difluoropiperidine-1-carbonyl)pyridin-2-yl)-7-(trifluoromethyl)benzofuran-2-yl)methyl)acrylamide]
- IC50 [1]: 40 nM
- IC50 [2]: 20 nM
- IC50 [3]: 150 nM
- IC50 [4]: 190 nM
- IC50 [5]: 20 nM
- IC50 [6]: 560 nM
- IC50 [7]: 1090 nM
- IC50 [8]: 540 nM
- IC50 [9]: > 10000 nM
- IC50 [10]: 1020 nM
- IC50 [11]: 800 nM
- IC50 [12]: 1530 nM
- IC50 [13]: 880 nM
- IC50 [14]: 140 nM
- IC50 [15]: 470 nM
- IC50 [16]: 200 nM
- IC50 [17]: 290 nM
- IC50 [18]: 540 nM
- IC50 [19]: 70 nM
- IC50 [20]: 4 nM
- IC50 [21]: 180 nM
- IC50 [22]: 80 nM
- IC50 [23]: 190 nM
- IC50 [24]: 8800 nM
- IC50 [25]: > 10000 nM
- IC50 [26]: 910 nM
- IC50 [27]: > 10000 nM
- IC50 [28]: > 10000 nM
- IC50 [29]: 40 nM
- IC50 [30]: 1460 nM
- inhibition of normal cells [31]: did not inhibit
